Experimental data taken from ChEMBL document CHEMBL1201862, “PubChem BioAssay data set” (2004).
The source made the active and inactive calls.

How the values were obtained:
[1] = target: Sphingosine 1-phosphate receptor 2 (Homo sapiens, UniProt O95136); assay: Dose Response Cell Based Assay for Agonists of the S1P2 Receptor of Purchased Analogues. [Related pubchem assays: 729, 843, 854, 736 ]; type: functional
[2] = target: NADPH oxidase 1 (Homo sapiens, UniProt Q9Y5S8); type: functional, cell-based;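 further: Cell-based assay with luminescence read-out, IC50 derived from inhibitor dose-response curves; intracellular ROS from endogenous NOX1 in intact HT29 colon cancer cells; potency of inhibitors that lower the ROS luminescence signal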
Sequence of NADPH oxidase 1 (Q9Y5S8 whole entry): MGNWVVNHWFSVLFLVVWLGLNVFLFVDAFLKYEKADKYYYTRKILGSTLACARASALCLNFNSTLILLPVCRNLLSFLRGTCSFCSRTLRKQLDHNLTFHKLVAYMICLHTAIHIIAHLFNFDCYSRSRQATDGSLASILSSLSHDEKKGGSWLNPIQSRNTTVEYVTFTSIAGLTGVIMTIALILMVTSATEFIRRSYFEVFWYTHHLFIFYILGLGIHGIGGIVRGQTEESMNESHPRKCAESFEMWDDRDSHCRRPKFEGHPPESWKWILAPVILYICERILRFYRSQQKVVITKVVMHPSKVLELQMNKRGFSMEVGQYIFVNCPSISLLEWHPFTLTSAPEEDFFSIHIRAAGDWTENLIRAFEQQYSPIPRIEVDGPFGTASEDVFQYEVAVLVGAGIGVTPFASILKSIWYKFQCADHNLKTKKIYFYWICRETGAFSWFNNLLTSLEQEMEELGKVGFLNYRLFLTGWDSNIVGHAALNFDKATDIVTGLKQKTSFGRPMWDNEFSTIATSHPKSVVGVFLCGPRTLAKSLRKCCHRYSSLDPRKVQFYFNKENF

[3] = target: T1, E3 ubiquitin-protein ligase XIAP (Homo sapiens, UniProt P98170); assay: small molecules displacing peptide from XIAP – biochemical, IAP family, fluorescence polarization (AID 1018); type: functional
T1 sequence (P98170 whole entry): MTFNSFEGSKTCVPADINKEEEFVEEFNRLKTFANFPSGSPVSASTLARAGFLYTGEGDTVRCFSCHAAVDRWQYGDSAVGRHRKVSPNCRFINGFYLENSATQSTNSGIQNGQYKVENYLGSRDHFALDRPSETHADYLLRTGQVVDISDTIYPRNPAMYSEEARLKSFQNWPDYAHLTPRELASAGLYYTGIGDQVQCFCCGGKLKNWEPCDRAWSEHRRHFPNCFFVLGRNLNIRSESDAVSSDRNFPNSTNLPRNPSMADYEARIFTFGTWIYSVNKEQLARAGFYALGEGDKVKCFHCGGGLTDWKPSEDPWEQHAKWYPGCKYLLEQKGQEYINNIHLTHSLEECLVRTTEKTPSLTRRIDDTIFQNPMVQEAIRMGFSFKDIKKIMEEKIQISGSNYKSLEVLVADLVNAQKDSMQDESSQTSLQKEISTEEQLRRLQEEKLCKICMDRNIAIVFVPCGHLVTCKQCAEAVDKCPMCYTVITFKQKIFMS

[4] = target: T1, E3 ubiquitin-protein ligase XIAP; assay: Counter Screen using XIAP-Bir3 for Chemical Antagonists of Bir1/2 domains of IAP-family anti-apoptotic proteins. [Related pubchem assays (depositor defined):AID1018, AID1449, AID1514, AID1638, AID1749, AID1750, AID488957, AID488963]
[5] = target: T2, Protein RecA (Mycobacterium tuberculosis, UniProt P9WHJ3); assay: Fluorescence Cell-Free Homogeneous Dose Retest to Identify Inhibitors of RecA-Intein Splicing Activity. [Related pubchem assays (depositor defined):AID2097, AID2223, AID489010, AID492950]; type: functional
T2 sequence (P9WHJ3 whole entry): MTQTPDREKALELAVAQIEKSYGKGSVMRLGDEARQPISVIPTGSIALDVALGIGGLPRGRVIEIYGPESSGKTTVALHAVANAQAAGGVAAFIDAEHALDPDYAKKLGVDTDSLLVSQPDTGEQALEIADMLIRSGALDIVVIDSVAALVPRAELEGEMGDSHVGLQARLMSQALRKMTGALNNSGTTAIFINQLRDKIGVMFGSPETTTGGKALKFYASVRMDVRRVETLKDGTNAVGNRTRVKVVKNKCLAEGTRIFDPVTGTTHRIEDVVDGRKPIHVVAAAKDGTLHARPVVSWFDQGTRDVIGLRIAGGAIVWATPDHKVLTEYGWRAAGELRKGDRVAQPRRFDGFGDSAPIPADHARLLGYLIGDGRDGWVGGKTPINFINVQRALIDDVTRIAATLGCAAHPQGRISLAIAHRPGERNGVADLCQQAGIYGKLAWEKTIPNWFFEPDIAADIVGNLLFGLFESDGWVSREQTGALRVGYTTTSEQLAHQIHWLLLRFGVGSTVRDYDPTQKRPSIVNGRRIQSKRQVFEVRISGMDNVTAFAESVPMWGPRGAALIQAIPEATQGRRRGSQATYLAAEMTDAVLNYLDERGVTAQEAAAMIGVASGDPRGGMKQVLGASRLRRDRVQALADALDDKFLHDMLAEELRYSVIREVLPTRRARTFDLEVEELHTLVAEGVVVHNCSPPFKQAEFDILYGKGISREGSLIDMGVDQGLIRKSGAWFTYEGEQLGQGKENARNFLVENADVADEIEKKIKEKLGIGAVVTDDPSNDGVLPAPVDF

[6] = target: T3, Leucine aminopeptidase (Plasmodium falciparum 3D7, UniProt Q8IL11); assay: P. falciparum M17LAP inhibitors, primary screen, biochemical, fluorogenic H-Leu-NHMec substrate, 1536-well (AID 1619); type: functional
T3 sequence (Q8IL11 whole entry): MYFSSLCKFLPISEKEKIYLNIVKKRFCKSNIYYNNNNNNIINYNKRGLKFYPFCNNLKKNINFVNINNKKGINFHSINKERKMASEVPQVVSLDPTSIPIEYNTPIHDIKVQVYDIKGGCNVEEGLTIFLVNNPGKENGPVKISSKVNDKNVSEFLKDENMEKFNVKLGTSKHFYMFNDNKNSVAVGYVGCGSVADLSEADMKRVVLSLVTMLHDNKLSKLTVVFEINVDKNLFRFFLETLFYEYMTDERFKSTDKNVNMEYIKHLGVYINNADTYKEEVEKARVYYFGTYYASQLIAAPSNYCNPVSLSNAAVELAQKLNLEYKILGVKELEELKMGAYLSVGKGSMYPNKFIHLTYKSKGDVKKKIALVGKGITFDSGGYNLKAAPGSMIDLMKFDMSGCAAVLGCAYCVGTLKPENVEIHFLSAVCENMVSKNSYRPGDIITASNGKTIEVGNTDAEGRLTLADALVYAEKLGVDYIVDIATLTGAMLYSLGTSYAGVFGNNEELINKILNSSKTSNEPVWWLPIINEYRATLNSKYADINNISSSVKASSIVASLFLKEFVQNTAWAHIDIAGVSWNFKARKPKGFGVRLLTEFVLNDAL

[7] = target: T4, Aspartyl aminopeptidase (Plasmodium falciparum 3D7, UniProt Q8I2J3); assay: Counterscreen for inhibitors of M1 and M17 aminopeptidases: QFRET-based biochemical high throughput dose response assay for inhibitors of the Plasmodium falciparum M18 Aspartyl Aminopeptidase (PFM18AAP). [Related PubChem assays: 1619 (Screening assay (M17LAP inhibitors).), 1445 (Screening assay (M1AAP inhibitors).)]
T4 sequence (Q8I2J3 whole entry): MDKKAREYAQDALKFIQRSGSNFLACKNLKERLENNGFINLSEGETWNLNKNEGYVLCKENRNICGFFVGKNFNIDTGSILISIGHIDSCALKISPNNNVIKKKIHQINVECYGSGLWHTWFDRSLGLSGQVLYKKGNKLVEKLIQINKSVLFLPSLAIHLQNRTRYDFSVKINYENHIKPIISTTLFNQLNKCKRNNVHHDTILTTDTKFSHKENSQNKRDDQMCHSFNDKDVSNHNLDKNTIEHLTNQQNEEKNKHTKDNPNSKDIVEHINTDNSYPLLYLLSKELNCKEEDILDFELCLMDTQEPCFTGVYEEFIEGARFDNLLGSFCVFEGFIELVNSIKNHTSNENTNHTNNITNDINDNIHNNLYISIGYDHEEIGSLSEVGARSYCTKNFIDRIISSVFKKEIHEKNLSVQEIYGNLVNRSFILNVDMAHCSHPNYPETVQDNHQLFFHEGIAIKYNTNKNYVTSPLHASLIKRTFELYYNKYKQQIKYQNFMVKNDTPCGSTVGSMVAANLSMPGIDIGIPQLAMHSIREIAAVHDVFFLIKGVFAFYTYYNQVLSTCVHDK

[8] = target: Procathepsin L (Homo sapiens, UniProt P07711); assay: CTSL1 protease inhibition – biochemical, QFRET, 1536-well, counter-screen for M1/M17 aminopeptidase inhibitor project, dose response (AID 2214)
Sequence of Procathepsin L (P07711 whole entry): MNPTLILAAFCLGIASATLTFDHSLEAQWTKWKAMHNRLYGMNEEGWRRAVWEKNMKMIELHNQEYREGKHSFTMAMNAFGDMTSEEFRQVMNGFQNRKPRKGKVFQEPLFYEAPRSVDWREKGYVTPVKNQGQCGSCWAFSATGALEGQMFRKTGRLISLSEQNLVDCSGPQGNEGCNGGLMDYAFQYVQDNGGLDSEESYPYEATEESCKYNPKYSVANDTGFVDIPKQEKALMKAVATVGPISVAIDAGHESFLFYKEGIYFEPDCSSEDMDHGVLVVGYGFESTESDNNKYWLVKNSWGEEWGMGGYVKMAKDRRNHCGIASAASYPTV

[9] = target: T5, Replicative DNA helicase DnaB (Mycobacterium tuberculosis, UniProt P9WMR3); assay: DnaB intein splicing inhibitors, dose response, biochemical, cell-free fluorescence (AID 449749); type: functional
T5 sequence (P9WMR3 whole entry): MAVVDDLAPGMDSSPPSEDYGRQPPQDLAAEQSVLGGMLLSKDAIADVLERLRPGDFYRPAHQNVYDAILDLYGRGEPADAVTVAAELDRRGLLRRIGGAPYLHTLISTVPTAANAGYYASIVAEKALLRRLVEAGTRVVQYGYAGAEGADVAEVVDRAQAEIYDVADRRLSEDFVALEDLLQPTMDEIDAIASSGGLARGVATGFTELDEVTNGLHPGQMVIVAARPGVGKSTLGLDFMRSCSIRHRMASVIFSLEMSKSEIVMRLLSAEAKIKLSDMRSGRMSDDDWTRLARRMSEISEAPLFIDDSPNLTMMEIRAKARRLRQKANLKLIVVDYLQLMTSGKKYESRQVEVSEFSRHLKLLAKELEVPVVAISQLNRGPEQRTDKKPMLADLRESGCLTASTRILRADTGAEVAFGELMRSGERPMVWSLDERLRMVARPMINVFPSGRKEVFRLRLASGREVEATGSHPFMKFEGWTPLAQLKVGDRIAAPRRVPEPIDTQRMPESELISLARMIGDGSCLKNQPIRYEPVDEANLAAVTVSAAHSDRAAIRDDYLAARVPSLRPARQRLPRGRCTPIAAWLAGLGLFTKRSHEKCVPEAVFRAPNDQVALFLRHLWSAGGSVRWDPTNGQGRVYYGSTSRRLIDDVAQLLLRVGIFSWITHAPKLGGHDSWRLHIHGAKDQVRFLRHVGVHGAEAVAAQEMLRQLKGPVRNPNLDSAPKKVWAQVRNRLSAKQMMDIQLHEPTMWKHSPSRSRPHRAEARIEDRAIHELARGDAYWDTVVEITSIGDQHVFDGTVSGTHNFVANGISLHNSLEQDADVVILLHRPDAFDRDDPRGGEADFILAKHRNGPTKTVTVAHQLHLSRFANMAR

[10] = target: Paired box protein Pax-8 (Homo sapiens, UniProt Q06710); assay: PAX8 transcriptional activity inhibition in RMG-I – RMG-I cells, luciferase, cherry-pick, dose response (AID 687027); type: functional, cell-based;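 further: luciferase reporter driven by Pax8 target thyroperoxidase promoter measured by SteadyGlo luminescence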
Sequence of Paired box protein Pax-8 (Q06710 whole entry): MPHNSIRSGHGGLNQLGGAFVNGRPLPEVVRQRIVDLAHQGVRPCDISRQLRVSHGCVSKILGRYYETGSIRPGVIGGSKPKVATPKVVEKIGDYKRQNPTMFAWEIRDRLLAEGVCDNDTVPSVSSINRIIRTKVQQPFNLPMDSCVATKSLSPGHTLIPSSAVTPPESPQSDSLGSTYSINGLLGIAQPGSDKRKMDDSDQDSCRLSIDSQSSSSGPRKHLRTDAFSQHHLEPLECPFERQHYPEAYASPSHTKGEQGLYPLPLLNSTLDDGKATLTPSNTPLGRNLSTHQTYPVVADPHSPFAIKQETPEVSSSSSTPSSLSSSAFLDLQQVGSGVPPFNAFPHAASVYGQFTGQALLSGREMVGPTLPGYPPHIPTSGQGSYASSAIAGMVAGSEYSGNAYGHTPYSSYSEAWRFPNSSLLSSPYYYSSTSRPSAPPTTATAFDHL

[11] = Trypanosoma cruzi growth suppression in host cells – NIH3T3 host cells, beta-gal luminescence, confirmation (AID 2044); type: functional, cell-based;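 further: intracellular parasites grown in NIH/3T3 mouse fibroblasts as host cells; luminescent beta-galactosidase reporter signal from transgenic T. cruzi replicating inside host cells; inhibitors lower the luminescence signal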
[12] = cells
[13] = target: T6, Heat shock factor protein 1 (Mus musculus, UniProt P38532); assay: decrease of HSF1-responsive luciferase luminescence – cell-based, NIH3T3, dose retest, confirmation (AID 2382); type: functional;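 further: NIH3T3 fibroblasts with HSF1-driven luciferase reporter stressed by proteasome inhibitor MG132; luminescence from HSF1-driven luciferase expression after 8 hours of MG132 stress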
T6 sequence (P38532 whole entry): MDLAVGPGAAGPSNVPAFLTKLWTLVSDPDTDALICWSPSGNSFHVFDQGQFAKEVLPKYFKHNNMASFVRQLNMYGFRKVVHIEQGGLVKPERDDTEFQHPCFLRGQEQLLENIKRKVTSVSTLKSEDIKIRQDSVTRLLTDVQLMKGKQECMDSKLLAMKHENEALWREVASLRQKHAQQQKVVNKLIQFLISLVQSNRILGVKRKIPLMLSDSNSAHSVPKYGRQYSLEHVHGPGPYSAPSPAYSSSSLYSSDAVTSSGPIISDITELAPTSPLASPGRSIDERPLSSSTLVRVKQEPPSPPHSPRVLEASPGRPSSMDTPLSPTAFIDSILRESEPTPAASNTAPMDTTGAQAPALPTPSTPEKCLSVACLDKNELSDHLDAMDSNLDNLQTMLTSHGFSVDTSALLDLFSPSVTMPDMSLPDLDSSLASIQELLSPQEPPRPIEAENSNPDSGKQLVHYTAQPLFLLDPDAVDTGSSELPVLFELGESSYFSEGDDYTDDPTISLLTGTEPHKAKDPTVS

[14] = HEK-293T viability loss, compound-treated – cell-based, uHTS hits, cytotoxicity control for B/T-cell NF-kB inhibitor project, dose response (AID 489019); type: functional;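 further: IC50 reflects cytotoxicity as loss of cell viability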
[15] = Luminescent dose response cell-based high throughput screening assay for inhibitors of the Janus kinase 2 mutant JAK2V617F. [Related pubchem assays: 1446 (Primary screen.), 1521 (Confirmation assay.), 1486 (Counter screen.)]; type: functional
[16] = general cell-killing toxicity readout – plate reader, dry powder samples, cytotoxicity control for PAX8 inhibitor project, dose response (AID 743021); type: functional, cell-based
[17] = test system: Jurkat; assay: blockers of NF-kB activation in T cells – Jurkat, luciferase reporter, luminescence, B- and T-cell, dose response (AID 489004); type: functional, cell-based; conditions: Homo sapiens;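 further: NF-kB luciferase reporter Jurkat cells stimulated with PMA plus ionomycin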
[18] = NIH3T3 cell viability loss – ATP luminescence, mouse fibroblasts, counter-screen, dose response (AID 2010); type: functional, cell-based;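 further: cells exposed to compound for about 90 hours before reading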
[19] = Luminescence Cell-Based Dose Response HTS to Identify Activators of Luciferase Translation or Activity in H4 […] Cells. [Related pubchem assays: 1829 (Project Summary), 1814 (Primary HTS)]; type: functional
[20] = Luminescence Cell-Based Dose Confirmation to Identify Activators of 5'UTR Stem-Loop Driven Alpha-Synuclein mRNA Translation in H4 Neuroglioblastoma Cells. [Related pubchem assays: 1829 (Project Summary), 1814 (Primary HTS)]; type: functional
[21] = Luminescence Cell-Based Dose Response to Identify Activators of 5'UTR Stem-Loop Driven Prion Protein mRNA Translation in H4-C Neuroglioblastoma Cells. [Related pubchem assays: 1829 (Project Summary), 1814 (Primary HTS)]; type: functional
[22] = test system: H4; assay: Luminescence Cell-Based Dose Response HTS to Identify Activators of 5'UTR Stem-Loop Driven Prion Protein mRNA Translation in H4 Neuroglioblastoma Cells. [Related pubchem assays: 1829 (Project Summary), 1814 (Primary HTS)]; type: functional; conditions: Homo sapiens
[23] = Luminescence Cell-Based Dose Response to Identify Activators of Luciferase Translation or Activity in H4-C Neuroglioblastoma Cells. [Related pubchem assays: 1829 (Project Summary), 1814 (Primary HTS)]; type: functional

Sequence of Sphingosine 1-phosphate receptor 2 (O95136 whole entry): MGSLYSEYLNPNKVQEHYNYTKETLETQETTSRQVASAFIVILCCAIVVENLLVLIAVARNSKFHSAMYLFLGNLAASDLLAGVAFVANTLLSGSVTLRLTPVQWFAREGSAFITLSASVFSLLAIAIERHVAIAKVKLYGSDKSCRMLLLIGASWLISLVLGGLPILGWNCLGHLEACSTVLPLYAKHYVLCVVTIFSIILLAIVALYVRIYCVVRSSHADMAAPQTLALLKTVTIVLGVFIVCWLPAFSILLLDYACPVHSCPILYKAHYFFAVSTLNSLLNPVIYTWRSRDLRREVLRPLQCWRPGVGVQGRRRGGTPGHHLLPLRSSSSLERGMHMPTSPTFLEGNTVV

## Cc1cc(C(=O)CSc2nnnn2C)c(C)n1Cc1ccccc1
[1]
  EC50: 30 µM (not active)

## COc1ccccc1OC(=O)c1sc2ccccc2c1Cl
[2]
  IC50: > 17 µM (not active)

## O=C(NC(=S)NC1CC1)c1cccnc1
[3]
  IC50: > 100 µM (not active)
[4]
  IC50: > 100 µM (inactive)

## COc1ccc(-c2cc(=O)[nH][nH]2)cc1OC
[5]
  EC50: 0.38 µM (active)
[6]
  IC50: 7.86 µM (active)
[7]
  IC50: > 73.5 µM (not active)
[8]
  IC50: > 59.6 µM (not active)
[9]
  AC50: 1.01 µM (active)

## O=C(CCl)/N=c1\sccn1Cc1ccc(Cl)cc1Cl
[5]
  EC50: 15.1 µM (active)
[10]
  AC50: 1.36 µM (active)
[11]
  EC50: < 0.1 µM (active)
[12]
  EC50: < 0.004 µM (active)
[13]
  EC50: 0.361 µM (active)
[14]
  IC50: > 80 µM (inactive)
[15]
  IC50: 0.235 µM (active)
[16]
  AC50: 2.54 µM (active)
[17]
  IC50: < 0.16 µM (active)
[18]
  EC50: 0.192 µM (active)
[9]
  AC50: 27.2 µM (active)

## CC1(C)CC(=O)/C(=N/Nc2ccc(Cl)cc2)CO1
[19]
  EC50: 0.207 µM (active)
[20]
  EC50: 0.504 µM (active)
[21]
  EC50: 0.422 µM (active)
[22]
  EC50: < 0.1 µM (active)
[23]
  EC50: 0.324 µM (active)
